How the values were obtained:
OxaC [1] = target: T1, OxaC (Penicillium oxalicum, UniProt A0A1B2TT09); assay: X-ray crystal structure, […] Å; assay type: binding
OxaC [2] = target: T1, OxaC; assay: X-ray crystal structure, […] Å; assay type: binding; remark: listed apart in the source
[3] = system: C=CC(C)(C)[C@@]12C=C(O)C(=O)N3/C(=C/c4cnc[nH]4)C(=O)N[C@]31N(OC)c1ccccc12; assay: HPLC initial-velocity assay, Michaelis-Menten fit; assay type: biochemical, Penicillium oxalicum; conditions: 0.9 nM OxaC, 0.5 mM SAM, 50 mM Na/K phosphate pH 8.0, 23 °C
crystal structure = target: the molecule itself; assay: crystal structure

Nc1ncnc2c1ncn2[C@@H]1O[C@H](CSCC[C@H](N)C(=O)O)[C@@H](O)[C@H]1O [S-adenosyl-L-homocysteine]
X-ray crystal structure, 2.50 Å (OxaC [1]; SAM site, product complex with oxaline): a product complex containing SAH and oxaline

C=CC(C)(C)[C@]12C=C(OC)C(=O)N3/C(=C/c4cnc[nH]4)C(=O)N[C@@]31N(OC)c1ccccc12 [compound 3, oxaline]
X-ray crystal structure, 2.50 Å (OxaC [1]; product complex with SAH, co-crystallised with meleagrin and SAM): a product complex containing SAH and oxaline

Nc1ncnc2c1ncn2[C@@H]1O[C@H](C[C@@H](N)CC[C@H](N)C(=O)O)[C@@H](O)[C@H]1O [sinefungin]
X-ray crystal structure, 2.95 Å (OxaC [2]; SAM site, complex with meleagrin): a pseudo-Michaelis complex composed of the SAM analog sinefungin and the natural substrate meleagrin

C=CC(C)(C)[C@@]12C=C(O)C(=O)N3/C(=C/c4cnc[nH]4)C(=O)N[C@]31N(OC)c1ccccc12 [compound 2, meleagrin]
X-ray crystal structure, 2.95 Å (OxaC [2]; pseudo-Michaelis complex with sinefungin): a pseudo-Michaelis complex composed of the SAM analog sinefungin and the natural substrate meleagrin

OxaC (Penicillium oxalicum)
Km [3]: 3.1 ± 0.9 µM
kcat [3]: 1.3 ± 0.2 s⁻¹
kcat/Km [3]: 420000 M⁻¹ s⁻¹

B1: OxaC (enzyme)
chain: MGSSHHHHHHHHGASENLYFQGASMTFSNADAQKIAVQKDVDEVVAAAQRFLHGSGNATSDEAKVDLQKKASNLVQTIRGPIPAALSSMEDIVKVASLRTLFEAGVFHAMPKGGASMTASEISAQTGLDKGILIRLMRAVTPLGPFHEVGEEEYAHTPFSEAYLTADIAGCFPVMSNFIFGPVLQICDFLRQNNWKDAITTRNNPFTLAHNCPGETMFEHLYKNSKNVAPVTKAEAADVDQIAMDLYPWEERLSDAKGSNATLVDIAGSHGNGTRAIMALAPKLNGCRFIVQDLEPVIGEHSQALRAEGIEPQVYDFLKQEQPVHGASIYYFRRVFHDWPDLPEGKKILDNTRAAMSREHSRILIHDIIVPEIGATMSHAWQDLSLMAIGGMERTEKDFARLLDIAGLALVKVWRKPGDMMGIIEARLK
stoichiometry N (crystal structure): 2

— paper PMC6134404 (Organic & biomolecular chemistry, 2018)
